Measured values published in patent US20220306653A1, “MACROCYCLIC INHIBITORS OF MCL-1” (Janssen Pharmaceutica NV, priority 2019, published 2022).
Where “and” joins values, the source holds several entries; their conditions need not be identical. Equal entries are not always repeated. Where two headings read alike, the source gives them in different places.

How the values were obtained:
[1] = test system: Molp8 multiple myeloma cell line; test: Molp8 multiple myeloma cell line survival assay using Annexin V and 7AAD; assay type: cell-based, human; conditions: live cell percent by Annexin V/7AAD flow cytometry, 3 days incubation; each independent run listed individually; read-out: MOLP8 Apoptosis IC50
From the text: Molp8 multiple myeloma cell line survival assay using Annexin V and 7AAD.
The Annexin V/7AAD principle is based on the location of phosphatidylserine in the plasma membrane and the integrity of the membrane barrier. During early apoptosis, phosphatidylserine loses its normal distribution patterns in the inner leaflet of the plasma membrane and appears on the exterior of the plasma membrane. Annexin proteins are calcium dependent phospholipid binding proteins and can bind phosphatidylserine on the outer membrane during cell death. The viability dye 7AAD is excluded from entering cells with intact plasma membranes but accumulates in cells that have lost membrane integrity. Annexin Fitc is excited by the 488 nm laser (max excitation: 490 nm, max emission: 525 nm) as is 7AAD (excitation: 488 nm, emission: 650 nm), which allows this assay to be completed on any multicolor flow cytometer.
The assay conditions were optimized using the following 1× reaction buffer: 5 mM HEPES (4-(2-hydroxyethyl)-1-piperazineethanesulfonic acid), 70 mM NaCl, 1.25 mM CaCl2, pH 7.4.
The Molp 8 cells were multiple myeloma, human, in suspension (*cells were counted 2× per week and culture density maintained between 0.5 and 1.5×10^6 cells per ml).
On Day 1, 5×10^4 live cells per well were plated in a 96-well U-bottom plate, with the cells plated in 100 uL RPMI+10% FBS. An 11-point compound dilution plate was prepared in 3-fold steps (Final concentration range 10 μM-0.1 nM) and added at a concentration of 1 μL per well. The plate was then incubated for 3 days at 37° C. and 5% CO2.
On Day 4, the cells were pelleted and the media discarded. The cells were then resuspended in 50 μL AnnexinV-Fitc (1:40 dilution) and 7AAD (1:100 dilution) in Annexin binding buffer, then incubated for 30 min @ room temperature in the dark. 50 μL binding buffer (100 uL total volume) was then added to the cells. There was no wash step required.
Within 2 hours, PeCy5 (7AAD) and Fitc (Annexin) channels were recorded using BD Canto, collecting a minimum per singlet of 10,000 events.
The activity of a test compound was calculated based on the live cell percentage. • LC=Median of the low control values • =Low control: cells without treatment (no greater than 100% live) • HC=Median of the high control values • =High control: cells treated with 10 uM drug (no less than 0% live)
A best-fit curve was fitted by a minimum sum of squares method to the plot of live cell percent vs. compound concentration. From this an IC50 value (inhibitory concentration causing 50% cytotoxicity) was obtained. An estimate of the slope of the plot in terms of the Hill coefficient was also obtained.

MOLP8 cells = test: MOLP8 CellEvent Caspase-3/7 Green apoptosis activation assay (IncuCyte live-cell kinetic readout); assay type: cell-based; conditions: each independent run listed
Experimental: MCL-1 is a regulator of apoptosis and is highly over-expressed in tumor cells that escape cell death. The assay evaluates the cellular potency of small-molecule compounds targeting regulators of the apoptosis pathway, primarily MCL-1, Bfl-1, Bcl-2, and other proteins of the Bcl-2 family. Protein-protein inhibitors disrupting the interaction of anti-apoptotic regulators with BH3-domain proteins initiate apoptosis.
Activation of the apoptotic pathway was measured using the CellEvent™ Caspase-3/7 Green ReadyProbes™ Reagent (Thermo Fisher C10423, C10723). This assay produces a green fluorescent stain in cells that enter the apoptosis pathway. CellEvent® Caspase-3/7 Green reagent is a four amino acid peptide (DEVD) conjugated to a nucleic acid-binding dye that is non-fluorescent when not bound to DNA. The CellEvent® Caspase-3/7 Green reagent is intrinsically non-fluorescent, as the DEVD peptide inhibits binding of the dye to DNA. Upon activation of caspase-3/7 in apoptotic cells, the DEVD peptide is cleaved and the free dye can bind DNA, generating a bright green fluorescence. The activation of Caspase-3 and Caspase-7 is downstream of inhibition of MCL-1 or other apoptosis inhibiting proteins in cell lines that are dependent on them.
The live-cell readout on the IncuCyte permits tracking over time of the Caspase activation. […] The IncuCyte readout also allows one to normalize for cell number, as the suspension cells are hard to distribute evenly.
Signals were measured every 2 h for a duration of 22 h. The ratio of the Caspase mask to the Confluence mask, per image, as raw data, was calculated and the kinetic trace for every well was exported to Genedata Screener for analysis.
In Genedata Screener values for 6 h, 12 h, and 22 h from the kinetic traces were extracted. The values were normalized against negative controls (untreated cells). A standard dose-response analysis was performed on the normalized data.
The following data was reported at each of the following three aforementioned time points: (a) The dose-response curve, (b) The qAC50 and qAC50 Mode, and (c) Max Activity.
Cells were maintained in culture medium containing 10% Heat Inactivated (HI) FBS, 2 mM L-Glutamine and 50 µg/mL Gentamycin phenol red free RPMI-1640. Cells were split at 0.4 million/mL twice a week.
On Day 1, plates containing individual wells with test compounds at 10 mM concentration, 150 nL per well. The final concentrations range from […] compound (and no compound control) and compounds were thawed at room temperature for 1 hour. 25 μl of prewarmed medium was added into each well by multidrop (column 1, 3-22, 24), followed by addition of DMSO control (0.6% DMSO) in column 2. The plate was sealed using Breathe-Easy® sealing membrane and shaken for 30 min at room temperature to dissolve the test compound(s) in medium. The plate was then kept in the incubator for 1 hour at 37° C., 5% CO2.
MOLP8 cells in medium at […] (20000/50 μl final in assay) were prepared with CellEvent™ Caspase-3/7 Green Detection Reagent at 4 μM (2 μM final in assay). Once prepared, the cells were added to the test compound plate in an amount of 20000 and the plate was immediately placed in the IncuCyte and imaging started using following settings: 10× objective, 2 s exposure time in green channel, interval of 2 h, acquisition stopped after 22 h.
For analysis in IncuCyte, a Basic Analysis protocol was defined to calculate the “confluence” and “caspase” areas from the “Phase” and “green” images, respectively, as follows: (a) Confluence: Segmentation Adjustment 1, Hole Fill 0, Adjust Size −2, No filters (b) Caspase: Top-Hat segmentation, Radius 10, Threshold 0.3 GCU, Edge Split On with sensitivity 0, Hole Fill 0, Adjust Size 1, and filter on a minimum Area of 20 μm^2. The analyzer is trained on a sufficient number of positive and negative control wells, as well as compound treated wells, verifying that the “confluence” layer detects both live and dead (condensed) cells. […]

[2] = 6 h, read-out: MOLP8 Caspase 3/7 AC50 at 6 h
[3] = 12 h, read-out: MOLP8 Caspase 3/7 AC50 at 12 h
[4] = 22 h, read-out: MOLP8 Caspase 3/7 AC50 at 22 h

Row | SMILES | IC50 [1] | AC50 (MOLP8 cells; [2]) | AC50 (MOLP8 cells; [3]) | AC50 (MOLP8 cells; [4])
1 | Cc1c(C(=O)O)n2c3ccc(Cl)c(c13)-c1c(nn(C)c1C)CSCc1cc(n(C)n1)CSc1cc(c3ccccc3c1)OCCC2 (single isomer, unassigned) [Compound 1, 1^5-chloro-1^3,2^1,2^5,6^1-tetramethyl-1^1H,2^1H,6^1H-10-oxa-4,8-dithia-1(4,1)-indola-2(4,3),6(3,5)-dipyrazola-9(3,1)-naphthalenacyclotridecaphane-1^2-carboxylic acid] | 54 nM and 106 nM | 178 nM and 129 nM | 141 nM and 182 nM | 145 nM and 170 nM
2 | Cc1c(C(=O)O)n2c3ccc(Cl)c(c13)-c1c(nn(C)c1C)CSCc1cc(n(C)n1)CSc1cc(c3ccccc3c1)OCCC2 (single isomer, unassigned) [Compound 2, 1^5-chloro-1^3,2^1,2^5,6^1-tetramethyl-1′H,2′H,6H-10-oxa-4,8-dithia-1(4,1)-indola-2(4,3),6(3,5)-dipyrazola-9(3,1)-naphthalenacyclotridecaphane-1^2-carboxylic acid] | 1300 nM and 7040 nM | 4570 nM and 4790 nM | 4470 nM and 4680 nM | 4270 nM and 4470 nM
